Structures can show the parent of a compound that is named as a salt.
Key:
[1] = tested on: TNF-α production from CD8^+ T cells; assay: T-cell stimulation bead-induced TNF-α production in CD8^+ T cells; assay type: cell-based, human; settings: CD3/CD28 stimulation, 3 days
Procedure: (§1) Cryopreserved PBMCs were quickly thawed in a 37° C. thermostat and added to a tube containing medium. After centrifugation (at room temperature at 300 g for 10 minutes) to remove the supernatant, the cells were suspended in the medium, a portion of which was then mixed with a trypan blue solution to count the number of viable cells. The cell suspension was centrifuged (at room temperature at 300 g for 10 minutes) to remove the supernatant, followed by addition of MACS Buffer in a volume of 80 μL per 1×10^7 cells to suspend the cells, to which Human CD8 MicroBeads (20 μL) were further added. After being allowed to stand on ice for 15 minutes, the cell suspension was diluted with MACS Buffer (2 mL) and centrifuged (at room temperature at 300 g for 10 minutes) to remove the supernatant.
MACS Buffer (500 μL) was added to the tube, and the cells were suspended and then applied to a separatory column to separate CD8^+ cells. The CD8^+ cell fraction was diluted to 15 mL with the medium and then centrifuged (at room temperature at 300 g for 10 minutes). The supernatant was removed and the cells were suspended in the medium (1 mL), followed by counting the number of viable cells. The cell suspension adjusted with the medium to 1×10^6 cells/mL was seeded in a 96-well plate in a volume of 100 μL/well (1×10^5 cells/well) and allowed to stand in a CO2 incubator for 1 to 2 hours.
The culture supernatants collected in 1.2.1 were quantified for TNF-α using Human TNF-α DuoSet ELISA.

[2] = tested on: IL-6 production from CD14^+ cells; assay: LPS stimulation-induced IL-6 production in CD14^+ cells; assay type: cell-based, human; settings: for IC50: Homo sapiens, 72 h, CD14^+ cells, LPS 3 ng/mL, 3 days
Procedure: as §1, with “suspended again” for “suspended”, “followed by counting” for “a portion of which was then mixed with a trypan blue solution to count”, “Buffer” for “Buffer in a volume of 80 μL per 1×10^7 cells”, “CD14” for “CD8”, “MicroBeads” for “MicroBeads (20 μL)”, “Buffer” for “Buffer (2 mL)”
MACS Buffer was added to the tube, and the cells were suspended and then applied to a separatory column to separate CD14^+ cells. The CD14^+ cell fraction was diluted with the medium and then centrifuged (at room temperature at 300 g for 10 minutes). The supernatant was removed and the cells were suspended in the medium (1 mL), followed by counting the number of viable cells. The cell suspension was adjusted with the medium to 2.4×10^5 or 3×10^5 cells/mL and seeded in a 96-well plate (2.4×10^4 cells/well), which was then allowed to stand in a CO2 incubator for 1 to 2 hours.
The collected culture supernatants were quantified for IL-6 using Human IL-6 DuoSet ELISA.

[3] = tested on: IFN-γ production from PBMCs; assay: T-cell stimulation bead- and LPS stimulation-induced CRS toxicity evaluation system in PBMCs: IFN-γ; assay type: cell-based, human; settings: for IC50: Homo sapiens, PBMC, 72 h, PBMCs, CD3/CD28 + LPS, 3 days
Procedure: Cryopreserved PBMCs were quickly thawed in a 37° C. thermostat and added to a tube containing medium. After centrifugation (at room temperature at 300 g for 10 minutes) to remove the supernatant, the cells were suspended again in the medium (10 mL), followed by counting the number of viable cells. After centrifugation (at room temperature at 300 g for 10 minutes) to remove the supernatant, the medium was added to suspend the cells at 1×10^6 cells/mL. This cell suspension was seeded in a 96-well plate in a volume of 100 μl/well (1×10^5 cells/well) and allowed to stand in a CO2 incubator for 1 to 2 hours.
The cells were cultured in a CO2 incubator for 3 days to collect the culture supernatants.
The collected culture supernatants were quantified for IFN-γ and IL-6 using Human IFN-γ DuoSet ELISA and Human IL-6 DuoSet ELISA.

[4] = tested on: killer activity of CAR-T cells; assay: Killer activity of CAR-T cells (CAR-T cells, target cells and CD14^+ cells, luciferase); assay type: cell-based, human; settings: 2 days
From the text: FMC63 scFv, the hinge, transmembrane and cytoplasmic domains of CD28 and the cytoplasmic domain of CD3-ζ were used to construct anti-CD19 CAR on the basis of the method of Kochenderfer, et al.^15). The sequence was obtained from GenBank (HM852952) and an IDT codon optimization tool (http://sg.igtdna.com/CodonOpt) was used to remove BamHI recognition sequences within FMC63. The optimized FMC63-28z sequence was chemically synthesized and amplified by polymerase chain reaction (PCR) with the following primer set.
The PCR product was inserted into the multicloning site (EcoRI and BamHI) of lentivirus plasmid CSII-EF-MCS-2A-eGFP by using an In-Fusion HD cloning kit to obtain CSII-EF-FMC63-28z-2A-eGFP. To prepare a lentivirus vector, CSII-EF-FMC63-28z-2A-eGFP and a packaging plasmid (pMDLg/p.RRE, pRSV-rev and pMD.G) were co-transfected into Lenti-X293T cells. The prepared lentivirus vector was infected into peripheral blood mononuclear cells stimulated with anti-CD3 antibody, anti-CD28 antibody and IL-2, followed by FACS sorting to obtain a CD3-positive and eGFP-positive fraction as CAR-T cells.
On the basis of the method of Kochenderfer, et al.^15), the open reading frame of human CD19 was synthesized and amplified by PCR with the following primers. […]
Subsequently, luciferase activity was determined by detection of emission intensity with an EnSpire 2300.

IFN-γ production = assay: CRS toxicity evaluation system using CAR-T cells: IFN-γ; assay type: cell-based; settings: Homo sapiens, Monocyte, target cells and monocytes, 72 hours
Procedure: (§2) The supernatants were collected at 72 hours after the initiation of culture, and various cytokines in each supernatant were measured by FACS multiplex assay.

IL-8 production = assay: CRS toxicity evaluation system using CAR-T cells: IL-8; assay type: cell-based, human; settings: for IC50: Homo sapiens, Monocyte, CAR-T cells, target cells and monocytes, 72 hours
Procedure: as §2

| SMILES | IC50 ([1]; dihydrochloride) [µM] | IC50 ([1]; Homo sapiens, T-cell, 72 h) [µM] | Ratio (IL-6/IFN-γ) of IC50 values ([2]; CD14^+ cells (IL-6) / CD8^+ T cells (IFN-γ)) | IC50 [2] [µM] | IC50 [3] [µM] | effect on the killer activity of CAR-T cells [4] | IC50 (IFN-γ production) [µM] | IC50 (IL-8 production) [µM] | IC50 [1] [µM] | suppression of IFN-γ production versus IL-6 production ([3]; PBMCs co-stimulated with T-cell stimulation beads and LPS) | suppressive effect on IL-8 production (IL-8 production; CRS toxicity evaluation system using CAR-T cells) |
| --- | --- | --- | --- | --- | --- | --- | --- | --- | --- | --- | --- |
| CCOC(=O)[C@H](Cc1ccccc1)NC(=O)c1cc(Cl)c(OCCN2CCN(C)CC2)c(Cl)c1O [JTE-607, (−)-ethyl N-{3,5-dichloro-2-hydroxy-4-[2-(4-methylpiperazin-1-yl)ethoxy]benzoyl}-L-phenylalaninate dihydrochloride] | 0.231 | 0.231 | <0.18 | 0.0529 | 0.0501 | did not affect | 0.598 | 0.154 |  |  |  |
| C[C@]12C=CC(=O)C=C1CC[C@@H]1[C@@H]2[C@@H](O)C[C@@]2(C)[C@H]1CC[C@]2(O)C(=O)CO [PSL, Prednisolone] |  | 0.0348 |  | 0.151 | 0.053 | suppressive effect on the killer activity of CAR-T cells in a concentration-dependent manner | 0.88 | > 100 | 0.035 | more strongly suppressed IFN-γ production than IL-6 production | no suppressive effect |
